Legend:
[1] = biological target: T1, CD73 (Homo sapiens (Human), UniProt P21589); type: biochemical; conditions: 1 mM NaH2PO4 in enzyme buffer, CD73 0.3 nM, AMP 15 uM
[2] = biological target: T1, CD73; assay: MDA-MB-231 Cell Based CD73 Activity Assay (DMEM); conditions: MDA-MB-231-GFP cells, DMEM medium with 10% human plasma, 200 uM AMP

T1 sequence (P21589 27-574): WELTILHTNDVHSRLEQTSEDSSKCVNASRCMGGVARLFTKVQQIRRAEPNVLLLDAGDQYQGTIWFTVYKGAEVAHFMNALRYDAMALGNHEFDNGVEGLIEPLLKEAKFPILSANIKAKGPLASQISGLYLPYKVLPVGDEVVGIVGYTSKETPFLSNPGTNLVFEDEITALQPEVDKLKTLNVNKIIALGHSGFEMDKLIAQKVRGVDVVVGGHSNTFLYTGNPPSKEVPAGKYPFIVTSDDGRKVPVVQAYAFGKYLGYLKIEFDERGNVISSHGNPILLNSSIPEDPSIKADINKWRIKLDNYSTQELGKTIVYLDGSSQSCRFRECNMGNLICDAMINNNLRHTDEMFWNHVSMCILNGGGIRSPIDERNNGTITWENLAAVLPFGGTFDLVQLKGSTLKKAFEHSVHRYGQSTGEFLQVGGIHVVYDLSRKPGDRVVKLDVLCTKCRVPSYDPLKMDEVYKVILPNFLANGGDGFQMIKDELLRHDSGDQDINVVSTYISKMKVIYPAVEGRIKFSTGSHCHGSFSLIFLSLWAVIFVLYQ

Row | SMILES | IC50 [1] [nM] | EC50 [2] [nM]
1 | CC1(C)CN(c2cc(-c3c[nH]c(=O)[nH]c3=O)nc3nccn23)CC1(F)F [Example 421, 5-(5-(3,3-difluoro-4,4-dimethylpyrrolidin-1-yl)imidazo[1,2-a]pyrimidin-7-yl)pyrimidine-2,4(1H,3H)-dione] | 31 | 65.1
2 | Cc1nc2c(N3CC(C)(C)C(F)(F)C3)cc(-c3c[nH]c(=O)[nH]c3=O)nn2c1F [Example 422, 5-(8-(3,3-difluoro-4,4-dimethylpyrrolidin-1-yl)-3-fluoro-2-methylimidazo[1,2-b]pyridazin-6-yl)pyrimidine-2,4(1H,3H)-dione] | 72.7 | 155
3 | O=c1[nH]cc(-c2cc(N3CC(F)(CO)C3)c3nccn3n2)c(=O)[nH]1 [Example 423, 5-(8-(3-fluoro-3-(hydroxymethyl)azetidin-1-yl)imidazo[1,2-b]pyridazin-6-yl)pyrimidine-2,4(1H,3H)-dione] | 39.2 | 76.4
4 | CC1(C)CN(c2cc(-c3c[nH]c(=O)[nH]c3=O)nn3ncnc23)CC1(F)F [Example 426, 5-(8-(3,3-difluoro-4,4-dimethylpyrrolidin-1-yl)-[1,2,4]triazolo[1,5-b]pyridazin-6-yl)pyrimidine-2,4(1H,3H)-dione] | 0.23 | 4.5
5 | O=c1[nH]cc(-c2cc([C@H]3C[C@@H]3c3ccc(C(F)(F)F)cc3)c3ncnn3n2)c(=O)[nH]1 [Example 427, 5-(8-((1S,2S)-2-(4-(trifluoromethyl)phenyl)cyclopropyl)-[1,2,4]triazolo[1,5-b]pyridazin-6-yl)pyrimidine-2,4(1H,3H)-dione] | 0.48 | 7.4
6 | N#Cc1cc(F)c([C@H]2C[C@@H]2c2cc(-c3c[nH]c(=O)[nH]c3=O)nn3ncnc23)c(F)c1 [Example 428, 4-((1S,2S)-2-(6-(2,4-dioxo-1,2,3,4-tetrahydropyrimidin-5-yl)-[1,2,4]triazolo[1,5-b]pyridazin-8-yl)cyclopropyl)-3,5-difluorobenzonitrile] | 1.38 | 14.7
7 | O=c1[nH]cc(-c2cc([C@H]3C[C@@H]3c3ccc4cnn(CC(F)(F)F)c4c3)c3ncnn3n2)c(=O)[nH]1 [Example 431, 5-(8-((1S,2S)-2-(1-(2,2,2-trifluoroethyl)-1H-indazol-6-yl)cyclopropyl)-[1,2,4]triazolo[1,5-b]pyridazin-6-yl)pyrimidine-2,4(1H,3H)-dione] | 0.15 | 0.13
8 | O=c1[nH]cc(-c2cc(N3CC(Oc4ccc(C(F)(F)F)cn4)(C(F)(F)F)C3)c3nccn3n2)c(=O)[nH]1 [Example 434, 5-(8-(3-(trifluoromethyl)-3-((5-(trifluoromethyl)pyridin-2-yl)oxy)azetidin-1-yl)imidazo[1,2-b]pyridazin-6-yl)pyrimidine-2,4(1H,3H)-dione] | 2.78 | 14.4
9 | O=c1[nH]cc(-c2cc(N3CC(F)(COc4ccc(C(F)(F)F)cn4)C3)c3nccn3n2)c(=O)[nH]1 [Example 435, 5-(8-(3-fluoro-3-(((5-(trifluoromethyl)pyridin-2-yl)oxy)methyl)azetidin-1-yl)imidazo[1,2-b]pyridazin-6-yl)pyrimidine-2,4(1H,3H)-dione] | 6 | 66
10 | O=C(NCC(F)(F)F)OCC1(F)CN(c2cc(-c3c[nH]c(=O)[nH]c3=O)nn3ccnc23)C1 [Example 437, (1-(6-(2,4-dioxo-1,2,3,4-tetrahydropyrimidin-5-yl)imidazo[1,2-b]pyridazin-8-yl)-3-fluoroazetidin-3-yl)methyl (2,2,2-trifluoroethyl)carbamate] | 12.8 | 43.6
11 | CC(C)NC(=O)OCC(F)(F)COc1cc(-c2c[nH]c(=O)[nH]c2=O)nn2ncnc12 [Example 438, 3-((6-(2,4-dioxo-1,2,3,4-tetrahydropyrimidin-5-yl)-[1,2,4]triazolo[1,5-b]pyridazin-8-yl)oxy)-2,2-difluoropropyl isopropylcarbamate] | 0.14 | 0.1
12 | CC1(C)CN(c2cc(-c3c[nH]c(=O)[nH]c3=O)nn3c(F)c(C4CC4)nc23)CC1(F)F [Example 440, 5-(2-cyclopropyl-8-(3,3-difluoro-4,4-dimethylpyrrolidin-1-yl)-3-fluoroimidazo[1,2-b]pyridazin-6-yl)pyrimidine-2,4(1H,3H)-dione] | 38.2 | 140
13 | CC1(C)CN(c2cc(-c3c[nH]c(=O)[nH]c3=O)nn3cc(C4(C(F)(F)F)CC4)nc23)CC1(F)F [Example 441, 5-(8-(3,3-difluoro-4,4-dimethylpyrrolidin-1-yl)-2-(1-(trifluoromethyl)cyclopropyl)imidazo[1,2-b]pyridazin-6-yl)pyrimidine-2,4(1H,3H)-dione] | 46.3 | 239
14 | O=c1[nH]cc(-c2cc(N3CC(OCC(F)(F)F)C3)c3nccn3n2)c(=O)[nH]1 [Example 447, 5-(8-(3-(2,2,2-trifluoroethoxy)azetidin-1-yl)imidazo[1,2-b]pyridazin-6-yl)pyrimidine-2,4(1H,3H)-dione] | > 250 | 718
15 | O=c1[nH]cc(-c2cc(N3CC4(CC(C(F)F)C4)C3)c3nccn3n2)c(=O)[nH]1 [Example 448, 5-(8-(6-(difluoromethyl)-2-azaspiro[3.3]heptan-2-yl)imidazo[1,2-b]pyridazin-6-yl)pyrimidine-2,4(1H,3H)-dione] | 194 | 1360

The remaining molecules from weak to strong by IC50 [1], led by results:

Row | IC50 [1] [nM] | EC50 [2] [nM] | SMILES
16 | 230 | 250 | O=c1[nH]cc(-c2cc(N3CC(Cc4ccc(F)cc4F)C3)c3nccn3n2)c(=O)[nH]1 [Example 450, 5-(8-(3-(2,4-difluorobenzyl)azetidin-1-yl)imidazo[1,2-b]pyridazin-6-yl)pyrimidine-2,4(1H,3H)-dione]
17 | 157 | 188 | O=c1[nH]cc(-c2cc(N3CC(CC(F)F)C3)c3nccn3n2)c(=O)[nH]1 [Example 443, 5-(8-(3-(2,2-difluoroethyl)azetidin-1-yl)imidazo[1,2-b]pyridazin-6-yl)pyrimidine-2,4(1H,3H)-dione]
18 | 148 | 256 | CC1(CC(F)(F)F)CN(c2cc(-c3c[nH]c(=O)[nH]c3=O)nn3ccnc23)C1 [Example 445, 5-(8-(3-methyl-3-(2,2,2-trifluoroethyl)azetidin-1-yl)imidazo[1,2-b]pyridazin-6-yl)pyrimidine-2,4(1H,3H)-dione]
19 | 132 | 473 | O=c1[nH]cc(-c2cc(N3CC4(C3)CC(F)(F)CO4)c3nccn3n2)c(=O)[nH]1 [Example 449, 5-(8-(7,7-difluoro-5-oxa-2-azaspiro[3.4]octan-2-yl)imidazo[1,2-b]pyridazin-6-yl)pyrimidine-2,4(1H,3H)-dione]
20 | 91 | 1100 | O=c1[nH]cc(-c2cc(N3CC(C45CC(C4)C5)C3)c3nccn3n2)c(=O)[nH]1 [Example 446, 5-(8-(3-(bicyclo[1.1.1]pentan-1-yl)azetidin-1-yl)imidazo[1,2-b]pyridazin-6-yl)pyrimidine-2,4(1H,3H)-dione]
21 | 71 | 356 | CC1(CC(F)F)CN(c2cc(-c3c[nH]c(=O)[nH]c3=O)nn3ccnc23)C1 [Example 444, 5-(8-(3-(2,2-difluoroethyl)-3-methylazetidin-1-yl)imidazo[1,2-b]pyridazin-6-yl)pyrimidine-2,4(1H,3H)-dione]
22 | 9.71 | 44.6 | O=c1[nH]cc(-c2cc(N3CC(F)(C(F)(F)F)C3)c3ncnn3n2)c(=O)[nH]1 [Example 433, 5-(8-(3-fluoro-3-(trifluoromethyl)azetidin-1-yl)-[1,2,4]triazolo[1,5-b]pyridazin-6-yl)pyrimidine-2,4(1H,3H)-dione]
23 | 6.46 | 19.6 | O=c1[nH]cc(-c2cc(N3CC4CCCC43)c3nccn3n2)c(=O)[nH]1 (stereo not shown) [Example 442, 5-(8-(6-azabicyclo[3.2.0]heptan-6-yl)imidazo[1,2-b]pyridazin-6-yl)pyrimidine-2,4(1H,3H)-dione]
24 | 4.87 | 13.7 | CC1(C)CN(c2cc(-c3c[nH]c(=O)[nH]c3=O)nc3ncnn23)CC1(F)F [Example 420, 5-(7-(3,3-difluoro-4,4-dimethylpyrrolidin-1-yl)-[1,2,4]triazolo[1,5-a]pyrimidin-5-yl)pyrimidine-2,4(1H,3H)-dione]
25 | 2.22 | 8.89 | O=c1[nH]cc(-c2cc(N3CC[C@@H](OC(F)(F)F)C3)c3ncnn3n2)c(=O)[nH]1 [Example 429, (R)-5-(8-(3-(trifluoromethoxy)pyrrolidin-1-yl)-[1,2,4]triazolo[1,5-b]pyridazin-6-yl)pyrimidine-2,4(1H,3H)-dione]
26 | 1.64 | 4.1 | N#Cc1cc(F)c([C@H]2C[C@@H]2c2cc(-c3c[nH]c(=O)[nH]c3=O)nn3ccnc23)c(F)c1 [Example 424, 4-((1S,2S)-2-(6-(2,4-dioxo-1,2,3,4-tetrahydropyrimidin-5-yl)imidazo[1,2-b]pyridazin-8-yl)cyclopropyl)-3,5-difluorobenzonitrile]
27 | 1.63 | 5.63 | N#Cc1cc(F)c([C@H]2C[C@@H]2c2cc(-c3c[nH]c(=O)[nH]c3=O)nn3c(F)cnc23)c(F)c1 [Example 425, 4-((1S,2S)-2-(6-(2,4-dioxo-1,2,3,4-tetrahydropyrimidin-5-yl)-3-fluoroimidazo[1,2-b]pyridazin-8-yl)cyclopropyl)-3,5-difluorobenzonitrile]
28 | 0.77 | 2.63 | O=c1[nH]cc(-c2cc([C@H]3C[C@@H]3c3ccc(Cl)cn3)c3ncnn3n2)c(=O)[nH]1 [Example 439, 5-(8-((1S,2S)-2-(5-chloropyridin-2-yl)cyclopropyl)-[1,2,4]triazolo[1,5-b]pyridazin-6-yl)pyrimidine-2,4(1H,3H)-dione]
29 | 0.18 | 0.71 | O=c1[nH]cc(-c2cc([C@H]3C[C@@H]3c3ccc4c(cnn4CC(F)(F)F)c3)c3ncnn3n2)c(=O)[nH]1 [Example 430, 5-(8-((1S,2S)-2-(1-(2,2,2-trifluoroethyl)-1H-indazol-5-yl)cyclopropyl)-[1,2,4]triazolo[1,5-b]pyridazin-6-yl)pyrimidine-2,4(1H,3H)-dione]

Source: patent publication US20240043427A1 (Gilead Sciences, Inc., priority 2020, published 2024)
